Experimental data: publication PMC12388523, “Flavonoids and Sesquiterpene Lactones from Lychnophora ericoides (Arnica-Do-Cerrado) and Their In Vitro Effects on Multiple Myeloma and Acute Myeloid Leukemia” (Metabolites, 2025)

Tests used:
NF-κB p65 = system: NF-κB p65; set-up: method as in PMID 22685350; conditions: read-out: concentration inhibiting NF-κB p65; cited from earlier work
MOLM-13 cells [1] = experiment: Proliferation, [3H]-thymidine uptake, MOLM-13; type: cell-based
Method: [The source words this procedure for another cell line and reports this cell line under the same test.] (§1) Acute myeloid leukemia cell line HL-60 and multiple myeloma cell lines AMO-1 and KMS-12-PE were obtained from the German Collection of Microorganisms and Cell Cultures (DSMZ), Braunschweig, Germany, and non-tumorigenic stromal cell line HS-5 was acquired from the American Type Culture Collection (ATCC, Manassas, VA, USA). All cell lines were cultured in RPMI 1640 medium without phenol red (Pan Biotech, Aidenbach, Germany), supplemented with 2 mM glutamine, 100 U/mL penicillin, 100 µg/mL streptomycin (Sigma-Aldrich, St. Louis, MO, USA), and 10% fetal bovine serum (FBS Maximus, Catus Biotech GmbH, Tutzing, Germany) at 37 °C in a humidified atmosphere of 5% CO2/95% air. Cells were fed twice weekly. Logarithmically growing cells were resuspended at 1 × 10^5 cells/mL, plated in triplicate in round-bottom 96-well plates (100 µL per well; Falcon, Becton Dickinson, Franklin Lakes, NJ, USA), and incubated at 37 °C in 5% CO2/95% air for 2 h. Subsequently, the compounds were adjusted in the cell culture medium to reach the final concentrations in a total volume of 150 µL and incubated for an additional 72 h. Cell proliferation was assessed by [^3H]-thymidine uptake. Each well was exposed to 2 µCi [^3H]-thymidine (Hartmann Analytic, Braunschweig, Germany) during the final 12–16 h of incubation. Cells were harvested using a semi-automated device, and [^3H]-thymidine incorporation (expressed in counts per minute, cpm) was measured with a scintillation counter (MicroBeta TriLux, PerkinElmer, Waltham, MA, USA). Metabolic activity was assessed by resazurin staining. Resazurin (Carl Roth, Karlsruhe, Germany) was dissolved in distilled water at a concentration of 0.1 mg/mL, and 15 µL of this solution was added to each well, followed by a 2 h incubation at 37 °C. Relative fluorescence units (RFUs) were measured using a Synergy H1 plate reader equipped with a 560 nm excitation/590 nm emission filter set (BioTek; Agilent, Santa Clara, CA, USA). Proliferation and metabolic activity in the absence of compounds were defined as 100% (control), and the values for compound-treated samples were expressed as percentages relative to the control. Selectivity indices were calculated by dividing the IC50 value of each compound against HS-5 cells through the IC50 values against the investigated cell lines.
(§2) The Wilcoxon Rank Sum Test was used to analyze proliferation and metabolic activity in the absence and presence of varying compound concentrations (NCSS 2007 software, version 07.1.2, Kaysville, UT, USA). A p-value < 0.05 was considered statistically significant. IC50 values were calculated using GraphPad Prism 10.1.2. This software reports 95% confidence intervals instead of standard errors. […] Nonetheless, the figures clearly illustrate the IC50 values due to the narrow concentration range tested.

HS-5 cells = experiment: Metabolic activity, resazurin staining, non-malignant HS-5; type: cell-based; conditions: HS5, HS-5 (non-malignant), 72 h, 95% confidence interval in brackets, read-out: IC50 inhibition of metabolic activity
Method: as §1, with “Subsequently, the compounds were adjusted in the cell culture medium to reach the final concentrations in a total volume of 150 µL and incubated for an additional 72 h.” left out, “Each well was exposed to 2 µCi [^3H]-thymidine (Hartmann Analytic, Braunschweig, Germany) during the final 12–16 h of incubation.” left out, “Resazurin (Carl Roth, Karlsruhe, Germany) was dissolved in distilled water at a concentration of 0.1 mg/mL, and 15 µL of this solution was added to each well, followed by a 2 h incubation at 37 °C.” left out
The Wilcoxon Rank Sum Test was used to analyze proliferation and metabolic activity in the absence and presence of varying compound concentrations (NCSS 2007 software, version 07.1.2, Kaysville, UT, USA). […] IC50 values were calculated using GraphPad Prism 10.1.2. […]

MOLM-13 = system: MOLM-13; set-up: method as in PMID 29350920; conditions: cited from earlier work
AMO-1 cells [2] = experiment: Metabolic activity, resazurin staining, AMO-1; type: cell-based
Method: as §1, §2
(§3) Proliferation inhibition often leads to cell death. Therefore, the cytotoxic activity of the compounds was further evaluated using a modified 3-(4,5-dimethylthiazol-2-yl)-2,5-diphenyltetrazolium bromide (MTT) assay, the resazurin (Alamar Blue) assay. Metabolically active cells reduce the non-fluorescent dye resazurin to the fluorescent dye resorufin via mitochondrial reductase activity, which correlates with cell viability. In the first step the metabolic activity of the four isolated flavonoids was investigated, showing a dose-dependent reduction, but to a much lower extent than in the proliferation assays (Table A2). In fact, only 7,3′,4′-trimethoxymyricetin (2) inhibited the metabolic activity of all four cell lines by more than 50% at a concentration of 100 µM.

CEM = system: CEM; set-up: method as in PMID 15577239; conditions: cited from earlier work
[3] = system: HL-60, MOLM-13, AMO-1, and KMS-12 PE cancer cells; experiment: Metabolic activity, range over the four tested cancer cell lines; type: cell-based; conditions: HL-60, MOLM-13, AMO-1, KMS-12 PE; read-out: IC50 inhibition of metabolic activity, range over cell lines
Method: Acute myeloid leukemia cell line HL-60 and multiple myeloma cell lines AMO-1 and KMS-12-PE were obtained from the German Collection of Microorganisms and Cell Cultures (DSMZ), Braunschweig, Germany, and non-tumorigenic stromal cell line HS-5 was acquired from the American Type Culture Collection (ATCC, Manassas, VA, USA). All cell lines were cultured in RPMI 1640 medium without phenol red (Pan Biotech, Aidenbach, Germany), supplemented with 2 mM glutamine, 100 U/mL penicillin, 100 µg/mL streptomycin (Sigma-Aldrich, St. Louis, MO, USA), and 10% fetal bovine serum (FBS Maximus, Catus Biotech GmbH, Tutzing, Germany) at 37 °C in a humidified atmosphere of 5% CO2/95% air. […] Cell proliferation was assessed by [^3H]-thymidine uptake. […] Cells were harvested using a semi-automated device, and [^3H]-thymidine incorporation (expressed in counts per minute, cpm) was measured with a scintillation counter (MicroBeta TriLux, PerkinElmer, Waltham, MA, USA). Metabolic activity was assessed by resazurin staining. […] Relative fluorescence units (RFUs) were measured using a Synergy H1 plate reader equipped with a 560 nm excitation/590 nm emission filter set (BioTek; Agilent, Santa Clara, CA, USA). Proliferation and metabolic activity in the absence of compounds were defined as 100% (control), and the values for compound-treated samples were expressed as percentages relative to the control. […]

MOLM-13 cells [4] = experiment: Metabolic activity, resazurin staining, MOLM-13; type: cell-based
Method: [The source words this procedure for another cell line and reports this cell line under the same test.] as §1, §2, §3

B16 = system: B16; set-up: method as in PMID 15577239; conditions: cited from earlier work
[5] = system: human colon cancer cell line HT-29; set-up: method as in PMID 22685350; conditions: cited from earlier work
EOL-1 = system: EOL-1; set-up: method as in PMID 29350920; conditions: cited from earlier work
KB cell line = system: KB cell line; set-up: method as in PMID 17089326; conditions: cited from earlier work
HL-60 cells = experiment: Proliferation, [3H]-thymidine uptake, HL-60; type: cell-based
Method: as §1, §2

[6] = system: myelomonocytic chicken cell line HD11-C3; set-up: method as in PMID 23501116; conditions: read-out: IC50 cytotoxic activity; cited from earlier work
KMS-12-PE cells = experiment: Proliferation, [3H]-thymidine uptake, KMS-12-PE; type: cell-based
Method: as §1, §2

AMO-1 cells [7] = experiment: Proliferation, [3H]-thymidine uptake, AMO-1; type: cell-based
Method: as §1, §2

BC cell line = system: BC cell line; set-up: method as in PMID 17089326; conditions: cited from earlier work

IC50 (MOLM-13 cells [1]; Homo sapiens, MOLM-13, 72 h, 95% confidence interval in brackets, read-out: IC50 inhibition of proliferation): 1000 nM
IC50 [3]: 1000 to 2000 nM
IC50 (MOLM-13 cells [4]; Homo sapiens, MOLM-13, 72 h, resazurin, 95% confidence interval in brackets, read-out: IC50 inhibition of metabolic activity): 1000 nM
IC50 (HL-60 cells; Homo sapiens, HL-60, 72 h, 95% confidence interval in brackets, read-out: IC50 inhibition of proliferation): 1100 nM
Compound: C=C(C)C(=O)O[C@H]1C[C@@]2(C)OC(=CC2=O)/C(CO)=C\[C@H]2OC(=O)C(=C)[C@H]12 [Compound 5, goyazensolide]
IC50 (NF-κB p65): 3800 nM
Selectivity index (proliferation) (MOLM-13 cells [1]; IC50 HS-5 / IC50 MOLM-13): 2.0
IC50 (HS-5 cells): 2600 nM
IC50 (MOLM-13): 860 nM
IC50 (AMO-1 cells [2]; Homo sapiens, AMO1, AMO-1, 72 h, resazurin, 95% confidence interval in brackets, read-out: IC50 inhibition of metabolic activity): 2000 nM
Selectivity index (metabolic activity) (AMO-1 cells [2]; IC50 HS-5 / IC50 AMO-1): 1.3
IC50 (CEM): 170 nM
Selectivity index (metabolic activity) (MOLM-13 cells [4]; IC50 HS-5 / IC50 MOLM-13): 2.6
IC50 (B16): 2080 nM
IC50 [5]: 560 nM
IC50 (EOL-1): 1100 nM
IC50 (KB cell line): < 300 nM
Selectivity index (proliferation) (HL-60 cells; IC50 HS-5 / IC50 HL-60): 1.8
IC50 [6]: 10000 nM
IC50 (KMS-12-PE cells; Homo sapiens, KMS-12-PE, 72 h, KMS-12-PE, 72 h, 95% confidence interval in brackets, read-out: IC50 inhibition of proliferation): 1500 nM
Selectivity index (proliferation) (KMS-12-PE cells; IC50 HS-5 / IC50 KMS-12-PE): 1.3
IC50 (AMO-1 cells [7]; Homo sapiens, AMO1, 72 h, AMO-1, 72 h, 95% confidence interval in brackets, read-out: IC50 inhibition of proliferation): 1600 nM
Selectivity index (proliferation) (AMO-1 cells [7]; IC50 HS-5 / IC50 AMO-1): 1.2
IC50 (BC cell line): < 300 nM
